According to patent publication US20070155827A1, “USE OF BENZO-FUSED HETEROCYCLE SULFAMIDE DERIVATIVES FOR THE TREATMENT OF DEPRESSION” (priority 2005, published 2007):
Entries after “also recorded” stand apart in the source; their conditions may differ.

Tested on: submissive rats
Assay: Dominant-Submissive Relations (DSR) assay: Reduction of Submissive Behavior Model (RSBM) of depression
Assay type: in vivo, Male Sprague Dawley rats
Experimental: The DSR assay is divided into two models: Reduction of Dominant Behavior Model (RDBM) of mania and Reduction of Submissive Behavior Model (RSBM) of depression. The RDBM, wherein the dominant animals are treated with test compound, is predictive of the ability of the test compound to treat mania. The RSBM, wherein the submissive animals are treated with test compound, is predictive of the ability of the test compound to treat depression.
Male Sprague Dawley rats (140 to 160 g) from Charles River Laboratories Wilmington, Mass. were used in this assay. Shipments of rats were received at two-week intervals. Each shipment went through five-day quarantine, one-week acclimation period, and one-week selection process, followed by five-weeks of drug or vehicle treatment to those pairs selected.
Rats were housed four per cage. Access to food was restricted to one hour per day after testing on Monday through Thursday. After testing on Friday, rats had free access to food until being fasted again on Sunday. At no time were the rats deprived of water. The food deprivation periods used had little effect on weight gain as the average weight of rats was about 300 g at the end of the study. At the conclusion of experiment rats were sacrificed by decapitation, the trunk blood and brains were collected for in vitro experiments and drug concentration measurements.
The basic testing apparatus consisted of two chambers connected with a tunnel only large enough to allow one rat to pass through at a time. On the floor, at the mid-point of the tunnel was a container of sweetened milk. This basic apparatus was replicated, so that a total of four pairs of rats can be video tracked simultaneously. The camera can distinguish rats marked by different colors. Thus, the rats' heads were colored for the purpose of video tracking, red in one cage and yellow in the other cage. Only one animal at a time can have comfortable access to the feeder, but both animals can drink milk during the five-minute daily session. During the five-minute daily sessions, time spent in the feeder zone by each rat was recorded by the video tracking software and saved into a text file.
The test began with a random assignment of rats into pairs. Each member of a pair was placed in an opposite chamber of the testing apparatus. The time spent in the feeder zone by each animal was recorded. During the first week (five days) of testing the animals habituate to the new environment. Dominance was assigned to the animal with the highest score during the second week of testing if three criteria were achieved. First, there must have been a significant difference (two-tailed t-test, P<0.05) between the average daily drinking scores of both animals. Second, the dominant animal score must have been at least 25% greater than the submissive animal's score. Finally, there must have been no “reversals” during the pair selection week where the putative submissive rat out-scored its dominant partner on isolated occasions. Ideally there were minimal reversals during the acclimation week as well. About twenty-five to thirty-three percent of the initial animal pairs achieved these criteria and only these pairs were continued in the study.
Significant differences between time spent on the feeder by dominant and submissive rats were determined by ANOVA using GraphPad Prism software (GraphPad Software, Inc. San Diego, Calif.) followed by a two-tailed t-test (P<0.05). Comparisons were made between treatment groups using normalized dominance level values in paired animals. The dominance level is a value that measures social relation between paired subjects. Dominance level (DL)=FTD−FTS where FTD is the feeder time of dominant rats and FTS is the feeder time of submissive rats. The normalization was conducted according to the formula: Dominance Level (week n in %)=(Dominance Level (week n))/(Dominance Level (week 2) […]

In the case of `NS(=O)(=O)NC[C@H]1COc2cc(Cl)ccc2O1` [Compound #8, (2S)-(−)-N-(6-Chloro-2,3-dihydro-benzo[1,4]dioxin-2-ylmethyl)-sulfamide], the “Dominance Level (DL) values vs vehicle control” value (2.5 mg/kg p.o.) is reported as “did not significantly differ from control”, the “consistent loss of significance between dominant and submissive rats feeder time” value (2.5 mg/kg p.o.) is reported as “no consistent loss of significance” and the “Dominance Level (DL) values vs vehicle control” value (12.0 mg/kg p.o.) is reported as “significantly different from vehicle treated controls after the second, fourth and fifth week of treatment”. For the same compound, the “Dominance Level (DL) values vs vehicle control” value (60 mg/kg p.o.) was “significant difference in DL values relative to vehicle starting at the first week and continuing through the treatment duration of 5 weeks”, the “difference in DL values with fluoxetine treated group” value (60.0 mg/kg p.o. vs fluoxetine 10 mg/kg) was “statistically significant at p<0.001 after first week and p<0.05 after second week of treatment” and the “Dominance Level (DL) values vs vehicle control” value (120 mg/kg p.o.) was “significantly different from the control group after first week, however, this significance dissipated after the second week of treatment”. For the same compound, the “consistent loss of significance between dominant and submissive rats feeder time” value (120.0 mg/kg p.o.) was “no consistent loss of significance”, the “loss of significant difference between dominant and submissive rats” value (Compound #8 p.o., all doses used (2.5, 12, 60, 120 mg/kg)) was “lost after the first week of treatment” and the “increased submissiveness during first week of treatment (effect seen with fluoxetine)” value (Compound #8 treated groups, p.o.) was “did not show this effect”. The ED50 (Rattus norvegicus, po, RSBM, calculated) was 6.6 ± 0.8 mg/kg and the “reduction of submissive behavior” value (p.o. once a day for 5 weeks to submissive rats, 2.5-120 mg/kg) was “reduce submissive behavior in a dose-dependent manner; also recorded: reduced submissive behavior”.
